Test results taken from patent US20260306525A1, “COMBINATION THERAPY GLUCOCORTICOIDS AND GINSENOSIDE” (FYTAGORAS B.V., priority 2023, published 2026).

Legend:
gr = assay: Gr transactivation activity in Tg(9xGCRE-HSV.UI23:EGFP)ia20 reporter larvae; assay type: in vivo, zebrafish (Danio rerio); settings: 24 h from 2 dpf; 10 μM GC, 50 μM Rg1 or combination
Protocol: (§1) To investigate the Gr transactivation activity in zebrafish larvae, the Tg(9xGCRE-HSV.UI23:EGFP)^ia20 reporter line was used, which expresses enhanced green fluorescent protein (EGFP) under the control of a promoter containing an array of nine GREs. […] The integrated intensity of the EGFP signal in the larvae was determined using ImageJ software.
as §1, with “Tg(9xGCRE-HSV.UI23:EGFP^ia20)” for “Tg(9xGCRE-HSV.UI23:EGFP)^ia20”

neutrophils = assay: zebrafish tail fin wounding assay, neutrophil migration to wounded site; assay type: in vivo, zebrafish (Danio rerio)
Protocol: (§2) Zebrafish (Danio rerio) were maintained and handled according to the guidelines from the Zebrafish Model Organism Database (http://zfin.org) and in compliance with the directives of the local animal welfare committee of Leiden University. Zebrafish were exposed to a 14 h light and 10 h dark cycle to maintain circadian rhythmicity. Fertilization was performed by natural spawning at the beginning of the light period. […] The following zebrafish lines were used in this study: the double transgenic line Tg(mpx:GFP^i114/mpeg1:mCherry^umsF001), in which neutrophils and macrophages are fluorescently labeled (green and red, respectively), and the Tg(9xGCRE-HSV.UI23:EGFP)^ia20 reporter line, in which the gene encoding enhanced green fluorescent protein (EGFP) is driven by a GRE-containing promoter.
(§3) For the tail fin wounding experiments, 20 larvae at 2 or 3 days post-fertilization (dpf) were utilized for each experimental group. For wounding, larvae were anesthetized in egg water containing 0.02% buffered aminobenzoic acid ethyl ester (tricaine; Sigma-Aldrich). Larvae were placed on Petri dishes coated with 2% agarose under a Leica M165C stereomicroscope (Leica Microsystems, Wetzlar, Germany), and the tails were partly amputated using a 1-mm sapphire blade (World Precision Instruments, Sarasota, FL, USA). For quantification of leukocyte migration, larvae were fixed overnight in 4% paraformaldehyde (PFA) at 4° C. The next day, fixed larvae were washed with Phosphate Buffered Saline (PBS) containing 0.1% Tween 20, and stored at 4° C. until imaging.
(§4) The macrophages were detected based on their red (mCherry) fluorescence, and neutrophils based on their green (EGFP) fluorescence. To quantify the number of macrophages and neutrophils recruited to the wounded area, the cells in a defined area of the tail were determined by blinded manual counting.
(§5) Zebrafish (Danio rerio) were maintained and handled according to the guidelines from the Zebrafish Model Organism Database (http://zfin.org) and in compliance with the directives of the local animal welfare committee of Leiden University. Zebrafish were exposed to a 14 h light and 10 h dark cycle to maintain circadian rhythmicity. Fertilization was performed by natural spawning at the beginning of the light period. […] The following zebrafish lines were used in this study: AB/TL wild type, the transgenic lines Tg(mpx:GFP^i114/mpeg1:mCherry^umsF001)[14, 15], and Tg(9xGCRE-HSV.UI23:EGFPia^20)[16], and the mutant lines grs357[20].
(§6) For the tail fin wounding experiments, 2- or 3-days post-fertilization (dpf) larvae were anesthetized in egg water containing 0.02% buffered aminobenzoic acid ethyl ester (tricaine; Sigma-Aldrich). Larvae were placed in Petri dishes coated with 2% agarose under a Leica M165C stereomicroscope (Leica Microsystems, Wetzlar, Germany), and the tails were partly amputated using a 1-mm sapphire blade (World Precision Instruments, Sarasota, FL, USA).
(§7) In experiments in which the leukocyte migration was used as a readout, larvae were subjected to treatment with chemicals as indicated, starting at 2 h before the amputation (pretreatment), and treatment was continued for 4 h after the tail fin amputation (20 larvae per group, unless indicated otherwise). In some experiments, a 24 h treatment with MZ31 (10 μM) was started at 2 dpf, and these treatments were continued during the pretreatment and treatment with the other chemicals. At 4 h after amputation, the larvae were fixed in 4% paraformaldehyde (PFA) overnight at 4° C. The next day, fixed larvae were washed with Phosphate Buffered Saline (PBS) containing 0.1% Tween 20 and stored at 4° C. until imaging. […] The macrophages were detected based on red (mCherry) fluorescence and neutrophils on their green (EGFP) fluorescence. To quantify the number of macrophages and neutrophils recruited to the wounded area, the cells in a defined area of the tail were determined by blinded manual counting. […]

[1] = size exclusion chromatography of micelles (Sephadex G50) with HPLC; assay type: physicochemical
Protocol: The size and content of the micelles were determined by means of size exclusion chromatography. 1 mL of aqueous ginsenoside/dexamethasone solution was loaded on a Sephadex G50 size exclusion column (size 25×1 cm) and eluted under gravity with water. Blue dextran (MW=2.000.000 Da) and erythrosine (880 Da) were used as molecular weight markers. Fractions of 2.0 mL were collected. The fractions were dried and dissolved in 70% methanol and the ginsenoside content was analyzed by means of HPLC. HPLC conditions were: • HPLC equipment: HPLC/DAD Aligent 1200 series, a quaternary pump connected to a DAD and autosampler. • Stationary phase: Kinetex 2.6 μm, C18 100 Å, 100×4.6 mm-Phenomenex, USA • Mobile phase: • A: 0.03% o-phosphoric acid (H3PO4) in Ultrapure H2O • B: 0.03% o-phosphoric acid (H3PO4) in Acetonitrile (LiChrosolv, Millipore-Merck, Darmstadt, Germany; quality far UV) • Gradient:
• Conditions • Flow: 0.8 ml/min • Injection volume: 20 μL • Column temperature: 35° C. • Detection wavelength: 203 and 241 nm

[2] = rule of thumb, literature table; cited from earlier work
zebrafish larvae [3] = assay: tail fin regeneration assay
macrophages = assay: zebrafish tail fin wounding assay, macrophage migration to wounded site; assay type: in vivo, zebrafish (Danio rerio); settings: Example 3, ginsenoside Re
Protocol: as §2, §3, §4, §5, §6, §7

zebrafish larvae [4] = assay: whole-body glucose measurement of zebrafish larvae; settings: Example 3, ginsenoside Re
[5] = micelle formation from dried film dissolved in H2O; appearance of solution; assay type: physicochemical
Protocol: Dried leaves of the plant Panax ginseng (8 gram) were boiled in water (350 mL), filtrated and loaded on a 20 mL Bed Volume (BV) column filled with macroporous resin (type D101). After extensively washing with water (15 BV's) the ginsenosides were eluted with 60% EtOH. The ginsenoside solution was decolorized by passing through a 20 mL BV column filled with type D941 macroporous resin. Subsequently, the solvents were slowly evaporated, after at 80° C. under reduced pressure (375 hPa) using a glass vials and a evaporator (P12-Multivapor, Buchi). After evaporation of both the ethanol and the water, a transparent film was formed on the wall of the glass vial.
In parallel 100 mg pure Re was solved in 10 mL of ethanol. […] The ethanol was slowly removed at 80° C. under low pressure (375 hPa) using a glass vials and a evaporator (P12-Multivapor). Again a clear film was formed on the wall of the glass tubes.
Micelle formation of ginsenoside extract obtained from dried leaves as described above was repeated in the presence of 0.6 mg of dexamethasone. Dexamethasone was first dissolved in ethanol in a concentration of 10 mg/mL and 0.6 mg of dexamethasone was added to the ethanolic ginsenoside fraction obtained after purification and decolorization by D101 and D941 resins respectively, using the method described herein above. The content of Re and Rg1 in this ethanolic ginsenoside fraction was 4 mg/10 mL as determined by HPLC (see below). The molecular ratio between dexamethasone and Re/Rel in this solution was around 5:70. The ethanol fraction was slowly removed at 80° C. under reduced pressure (375 hPa) using a glass vials and a evaporator to obtain a film. […] The content and the presence of micelles were assessed by size exclusion chromatography as described below.

zebrafish larvae [6] = assay: whole-body cortisol measurement of zebrafish larvae (ELISA); settings: Example 3, ginsenoside Re

For C[C@@H]1C[C@H]2[C@@H]3CCC4=CC(=O)C=C[C@]4(C)[C@@]3(F)[C@@H](O)C[C@]2(C)[C@@]1(O)C(=O)CO [dexamethasone, reference compound], the “relative EGFP intensity (Gr transactivation)” value (gr) was “significantly increased the relative EGFP intensity”, the “neutrophil migration to the wounded site” value (neutrophils; 10 μM dexamethasone) was “did not affect neutrophil migration” and the “detection of free dexamethasone in fractions after 55 mL” value [1] was “could not be detected in these fractions”. The “co-elution of dexamethasone with micelles / encapsulation” value ([1]; Sephadex G50 fractions) was “co-eluted with the Re and Rg1 containing micelles”, the “dose equivalent to a 5 mg prednisone dose” value [2] was “about 0.75 mg” and the “regeneration of amputated tail fin (length of regenerated tissue at 5 dpf)” value (zebrafish larvae [3]; 0-5 dpf, 10 μM beclomethasone or dexamethasone, 50 μM Rg1 or combinations, amputation at 2 dpf) was “dexamethasone-induced inhibition of the regenerative process”.

For CC(C)=CCC[C@](C)(O[C@@H]1O[C@H](CO)[C@@H](O)[C@H](O)[C@H]1O)[C@H]1CC[C@]2(C)[C@@H]1[C@H](O)C[C@@H]1[C@@]3(C)CC[C@H](O)C(C)(C)[C@@H]3[C@@H](O[C@@H]3O[C@H](CO)[C@@H](O)[C@H](O)[C@H]3O[C@@H]3O[C@@H](C)[C@H](O)[C@@H](O)[C@H]3O)C[C@]12C [Re, (3β, 6α, 12β)-20-(β-D-Glucopyranosyloxy)-3, 12-dihydroxydammar-24-en-6-yl 2-O-(6-deoxy-α-L-mannopyranosyl)-β-D-glucopyranoside], the “migration of neutrophils to the wounded tail area” value (neutrophils; Example 3, ginsenoside Re) was “inhibited the migration of neutrophils to the wounded tail area”, the migration of macrophages (macrophages) was “did not inhibit the migration of macrophages” and the whole body glucose (zebrafish larvae [4]) was “no side effects could be observed”. The “appearance of solution in ethanol” value ([5]; 100 mg in 10 mL of ethanol) was “clear solution”, the “appearance of solution in H2O after dissolving the film” value ([5]; film from ethanol (or 60% EtOH) evaporation, dissolved in H2O) was “cloudy solution” and the “micelle formation / crystallization in H2O” value ([5]; microscopic determination, 10 mL H2O) was “crystallization of Re (FIG. 12B) and no micelles were obtained”. For the same compound, the whole body cortisol (zebrafish larvae [6]) was “no side effects could be observed” and the regenerative tissue (zebrafish larvae [3]; Example 3, ginsenoside Re) was “did not affect regenerative tissue”.
